Measured values: the supplement of paper PMC10307832

Tests used:
Assay in all cases: relative viability (nuclei count vs DMSO), 5 days (fraction); higher = more cells survive
Crenolanib + Foretinib = compound: CC1(COc2ccc3c(c2)ncn3-c2ccc3cccc(N4CCC(N)CC4)c3n2)COC1 [Crenolanib] + COc1cc2c(Oc3ccc(NC(=O)C4(C(=O)Nc5ccc(F)cc5)CC4)cc3F)ccnc2cc1OCCCN1CCOCC1 [Foretinib] (partner 0.25 µM)
Summary of the method: (§1)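 Cells from lung cancer lines were seeded into 1536-well plates and, one day later, dosed by pin tool. Treatments were either a single drug or a fixed dose of an anchor drug with five library-drug doses (not always all listed) in √10 steps. After 5 days, nuclei were stained in a one-step fixation (final 0.05% Triton X-100, 1% formaldehyde, 1 ug/ml Hoechst) and counted on 4× images, and relative viability is the treated-to-vehicle nuclei ratio, as the median of duplicate plates.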

Tivantinib + OSI-027 = compound: O=C1NC(=O)[C@@H](c2cn3c4c(cccc24)CCC3)[C@@H]1c1c[nH]c2ccccc12 [Tivantinib] + COc1cccc2cc(-c3nc([C@H]4CC[C@H](C(=O)O)CC4)n4ncnc(N)c34)[nH]c12 [OSI-027] (partner 0.5 µM)
Summary of the method: as §1

Crenolanib + Lapatinib = compound: CC1(COc2ccc3c(c2)ncn3-c2ccc3cccc(N4CCC(N)CC4)c3n2)COC1 [Crenolanib] + CS(=O)(=O)CCNCc1ccc(-c2ccc3ncnc(Nc4ccc(OCc5cccc(F)c5)c(Cl)c4)c3c2)o1 [Lapatinib] (partner 2 µM)
Summary of the method: as §1

Tivantinib + AZD7762 = compound: O=C1NC(=O)[C@@H](c2cn3c4c(cccc24)CCC3)[C@@H]1c1c[nH]c2ccccc12 [Tivantinib] + NC(=O)Nc1cc(-c2cccc(F)c2)sc1C(=O)N[C@H]1CCCNC1 [AZD7762] (partner 0.2 µM)
Summary of the method: as §1

| Cell Line | relative viability (Crenolanib + Foretinib; first compound 0.01 µM) | relative viability (Crenolanib + Foretinib; first compound 0.03162 µM) | relative viability (Crenolanib + Foretinib; first compound 0.1 µM) | relative viability (Crenolanib + Foretinib; first compound 0.3162 µM) | relative viability (Crenolanib + Foretinib; first compound 1 µM) | relative viability (Tivantinib + OSI-027; first compound 0.01 µM) | relative viability (Tivantinib + OSI-027; first compound 0.03162 µM) | relative viability (Tivantinib + OSI-027; first compound 0.1 µM) | relative viability (Tivantinib + OSI-027; first compound 0.3162 µM) | relative viability (Crenolanib + Lapatinib; first compound 0.01 µM) | relative viability (Crenolanib + Lapatinib; first compound 0.03162 µM) | relative viability (Crenolanib + Lapatinib; first compound 0.1 µM) | relative viability (Crenolanib + Lapatinib; first compound 0.3162 µM) | relative viability (Crenolanib + Lapatinib; first compound 1 µM) | relative viability (Tivantinib + AZD7762; first compound 0.01 µM) | relative viability (Tivantinib + AZD7762; first compound 0.03162 µM) | relative viability (Tivantinib + AZD7762; first compound 0.1 µM) | relative viability (Tivantinib + AZD7762; first compound 0.3162 µM) |
| --- | --- | --- | --- | --- | --- | --- | --- | --- | --- | --- | --- | --- | --- | --- | --- | --- | --- | --- |
| LCLC-97TM1 | 1.01 | 0.867 | 0.958 | 0.979 | 0.971 | 0.44 | 0.473 | 0.428 | 0.36 | 0.895 | 0.861 | 0.748 | 0.959 | 0.784 | 0.268 | 0.311 | 0.197 | 0.25 |
| LK-2 | 1.27 | 1.66 | 1.12 | 1.35 | 1.36 | 0.225 | – | 0.219 | 0.243 | 0.942 | 0.812 | 0.935 | 0.938 | 0.851 | 0.447 | 0.214 | 0.288 | 0.363 |
| LOU-NH91 | 0.969 | 0.914 | 0.893 | 0.888 | 0.892 | 0.657 | 0.709 | 0.729 | 0.465 | 0.798 | 0.742 | 0.774 | 0.737 | 0.772 | 0.784 | 0.719 | 0.702 | 0.738 |
| LU99A | 0.747 | 0.867 | 0.867 | 0.879 | 0.897 | 0.295 | 0.295 | 0.296 | 0.249 | 1.08 | 0.988 | 1 | 1.03 | 0.955 | 0.318 | 0.356 | 0.307 | 0.278 |
| LXF-289 | 1.02 | 0.971 | 0.942 | 0.989 | 0.977 | 0.77 | 0.724 | 0.761 | 0.858 | 0.887 | 0.918 | 0.889 | 0.908 | 0.838 | 1.14 | 1.13 | 1.07 | 1.08 |
| NCI-H23 | 1.12 | 1.13 | 0.97 | 0.995 | 1.06 | 0.651 | 0.366 | 0.515 | 0.518 | 1.04 | 1.16 | 0.977 | 1.22 | 0.992 | 0.283 | 0.23 | 0.319 | 0.336 |
| NCI-H322M | 0.951 | 1.07 | 0.973 | 0.96 | 0.98 | 0.542 | 0.501 | 0.546 | – | 0.613 | 0.64 | 0.543 | 0.567 | 0.587 | 0.613 | 0.419 | 0.571 | – |
| NCI-H358 | 0.816 | 0.666 | 0.634 | 0.701 | 0.567 | 0.839 | 0.94 | 0.634 | 0.195 | 0.468 | 0.461 | 0.44 | 0.45 | 0.312 | 0.443 | 0.576 | 0.497 | 0.279 |
| NCI-H460 | 1.02 | 1.06 | 0.938 | 1 | 0.99 | 0.608 | 0.573 | 0.619 | 0.864 | 0.997 | 1 | 1.04 | 1.46 | 1.01 | 0.513 | 0.739 | 0.517 | 0.64 |
| NCI-H596 | 0.774 | 0.89 | 0.752 | 0.78 | 1.03 | 0.619 | 0.62 | 0.821 | 0.734 | 0.947 | 1.09 | 0.89 | 1.14 | 1.18 | 0.994 | 0.975 | 1.09 | 1.38 |
| NCI-H647 | 1.25 | 1.09 | 1.11 | 1.23 | 1.28 | 0.792 | 0.618 | 0.574 | 0.83 | 1.04 | 0.996 | 1.05 | 1.16 | 1.08 | 0.509 | 0.314 | 0.445 | 0.585 |
| NCI-H650 | 1.09 | 0.986 | 0.991 | 1.02 | 1 | 0.542 | 0.403 | 0.501 | 0.641 | 0.83 | 1.15 | 0.884 | 0.841 | 0.655 | 1.17 | 0.818 | 1 | 1.21 |
| NCI-H727 | 0.915 | 0.975 | 0.835 | 0.893 | 0.809 | 0.781 | 0.484 | 0.515 | 0.468 | 0.936 | 0.662 | 0.752 | 0.856 | 0.686 | 0.535 | 0.421 | 0.551 | – |
| NCI-H838 | 1.11 | 1.03 | 1.04 | 1.16 | 1.06 | 0.394 | 0.377 | 0.345 | 0.363 | 1.07 | 0.966 | 0.993 | 1.02 | 0.805 | 1 | 0.973 | 0.872 | 0.906 |
| NCI-H1355 | 1.02 | 1 | 0.94 | 1.07 | 0.906 | 0.434 | 0.348 | 0.401 | 0.356 | 1.02 | 1.04 | 0.999 | 1.15 | 0.78 | 0.756 | 0.819 | 0.794 | 0.637 |
| NCI-H1395 | 1.03 | 0.97 | 1.01 | 1.07 | 0.936 | 0.678 | 0.662 | 0.651 | 0.599 | 1.02 | 1.06 | 0.915 | 0.942 | 0.971 | 0.406 | 0.405 | 0.395 | 0.371 |
| NCI-H1437 | 1.28 | 1.28 | 1.31 | 1.31 | 1.14 | 0.911 | 0.795 | 0.811 | 0.886 | 0.751 | 0.762 | 0.808 | 0.873 | 0.688 | 1.22 | 1.16 | 1.11 | 0.96 |
| NCI-H1651 | 0.884 | 0.967 | 0.883 | 0.94 | 0.787 | 0.846 | 0.654 | 0.625 | 0.713 | 0.83 | 0.979 | 0.9 | 0.945 | 0.767 | 0.452 | 0.404 | 0.437 | 0.353 |
